From patent EP0277849A1, “Incorporation of one or more lipophilic, active principles into lipoproteins, lipoproteins obtained and pharmaceutical compositions containing them” (IRE-CELLTARG S.A., priority 1987, dated 1988)
Like-named read-outs stand apart in the source and are kept apart here.

Columns and labels:
[1] = Incorporation of antifungal agent into LDL by NaDoc dissociation-reconstitution; assay type: physicochemical; conditions: 1,6 mg LDL, 482 µg of agent, dialysis
Method: On ajoute à 1,6 mg de LDL préalablement dialysées contre le tampon C, 10 mg de NaDoc solide et on laisse réagir 30 minutes à température ambiante. On ajoute à la préparation 2,8 ml d'une solution NaDoc 20 mM, Na2COs 50 mM, NaCi 50 mM, pH 10 contenant 482 µg de CT4000A ou 482 µg de CT040013. Les échantillons sont dialysés à 4° C contre trois fois 1 litre de tampon B.
Le pourcentage de récupération en LDL, en CT040013 et en NaDoc est déterminé au terme du processus de reconstitution (figure 13).
Il est également possible de rapporter la masse de substance incorporée par mole de LDL. Les résultats obtenus pour le CT04000A et la CT040013 sont respectivement de 0,4 et de 208 moles incorporés par mole de LDL.

[2] = Stability of reconstituted LDL in presence of plasma (KBr gradient fractionation); assay type: in vitro ADME; conditions: 1 ml de plasma humain, trois heures à 37° C
Method: Dans un milieu biologique aussi complexe que le plasma, de nombreux constituants peuvent, à priori, inte) ragir avec les LDL rec. CT040013 et provoquer leur déstabilisation ou entraîner une libération du principe actif incorporé. Aussi, une première étude a été entreprise pour essayerde caractériser le comportement des LDL rec. CT040013 lorsque ces dernières sont mises en présence de plasma.
Deux préparations ont été testées : les LDL rec. O.CHOL [^14C] et les LDL rec" CT040013. 500 µl de ces différentes préparations sont incubées avec 1 ml de plasma humain pendant trois heures à 37° C. Au terme de cette incubation, les échantillons sont fractionnés par ultracentrifugation sur gradient discontinu en KBr. Par aspiration, on récupère les fractions correspondantes aux différentes densités, et sur chacune de celle-ci, le cholestérol, les phospholipides, l'oléate de cholestérol [^14C] sont dosés (figure 15). Le profil en cholestérol total et en phospholipides est identique dans les deux gradients. On y distingue trois pics correspondants aux trois classes de lipoprotéines, par ordre décroissant de densité : HDL, LDL, et VLDL.

macrophages J77468 = test: Toxicity for J77468 macrophages (MTT reduction); assay type: cell-based, murine; conditions: for % de viabilité cellulaire*: 18 h, MTT
Method: (§1) La lignée continue de macrophages J77468 d'origine murine provient d'un clonage de la souche J774 ATCC, et est cultivée en milieu RPMI 1640 additionné de glutamine 2 mM, 10% de sérum de veau foetal (décomplémenté 60 min. à 56°) et de 10 mM Hepes (pH 7.2). Une suspension de 5 10^6 cellules/ml sont infectées avec une culture de Candida tropicalis (5 10^5 levures/ml) provenant d'une culture de nuit dans de la casitone. Le milieu d'infection utilisé est du RPMI contenant 2 % de sérum de veau nouveau-né et 10 mM Hepes (pH 7.2).
La viabilité des macrophages J77468 cultivés dans du milieu contenant l'agent antifongique encapsulé ou non dans les LDL figure au Tableau 5. K et K01 sont toxiques aux concentrations nécessaires pour réduire de 50 % l'infection intracellulaire (C1250) contrairement au LDL-K01 pour lequel aucune toxicité n'a pu être détectée.

C. tropicalis = test: Extracellular infection in the infected-macrophage model; assay type: cell-based; conditions: Candida tropicalis, read-out: CIext50^(a)
Method: as §1
Après 3 h d'incubation à 37° dans un mélange d'air 10 % C02, la phagocytose des levures est complète. La suspension cellulaire macrophages-Candida est centrifugée, lavée abondamment et répartie à raison de 10^5 macrophages infectés/alvéole dans des boîtes à 24 alvéoles contenant une lamelle de verre (diamètre 14 mm). Après 3 h de phagocytose (To), sur 100 macrophages, 32 contiennent de 1 à 6 Candida/macrophage, l'infection moyenne étant de 2 Candida/macrophage.
Toutes les levures ont été phagocytées sauf rares exceptions (estimation au microscope optique après coloration au May-Grünwald Giemsa). Douze concentrations différentes des drogues de référence et des drogues encapsulées dans les LDL sont distribuées dans les boîtes contenant les macrophages infectés.
L'évaluation de l'efficacité d'une drogue se fait à chaque concentration. Testées après 18 h d'incubation (37°, dans un mélange air-10 % C02), les levures se multiplient d'abord au sein des cellules hôtes, puis dans le milieu extracellulaire. Le taux de macrophages infectés est alors de 75 % chez les témoins. Une cellule peut contenir de 1 à plus de 20 Candida/cellule, la majorité contient de 2 à 6 levures/cellule. Le milieu de culture contient 10^8 Candida extracellulaires/ml (comptage dans une cellule de Burker).
L'action des AF encapsulés sur une infection extracellulaire peut être évaluée de deux manières : d'une part en déterminant le nombre de Candida extracellulaires dans un modèle d'infection intracellulaire (voir VIII § 1.1.), d'autre part en mesurant la concentration minimale inhibitrice (CMI) de ces composés par la méthode de dilutions successives dans des boîtes à multipuits (milieu RPMI).

Structure (SMILES): CCCCCCCC/C=C\CCCCCCCC(=O)N1CCN(c2ccc(OC[C@H]3CO[C@](Cn4ccnc4)(c4ccc(Cl)cc4Cl)O3)cc2)CC1 [KO1]
- moles incorporés par mole de LDL [1]: 208 moles incorporés par mole de LDL
- association à l'albumine [2]: il n'a pas été possible de mettre en évidence une association
- relarguage / redistribution de la molécule incorporée en présence de plasma [2]: n'est pas pris en charge par ces protéines de transfert
- toxicité aux concentrations nécessaires pour réduire de 50 % l'infection intracellulaire (macrophages J77468): toxiques
- % de viabilité cellulaire* (macrophages J77468; Concentration 0,78 µM): 67,72%
- % de viabilité cellulaire* (macrophages J77468; Concentration 1,56 µM): 67,72%
- % de viabilité cellulaire* (macrophages J77468; Concentration 3,13 µM): 67,36%
- % de viabilité cellulaire* (macrophages J77468; Concentration 6,25 µM): 60,70%
- % de viabilité cellulaire* (macrophages J77468; Concentration 12,50 µM): 69,47%
- % de viabilité cellulaire* (macrophages J77468; Concentration 25,00 µM): 67,71%
- % de viabilité cellulaire* (macrophages J77468; Concentration 50,00 µM): 71,22%
- % de viabilité cellulaire* (macrophages J77468; Concentration 100,00 µM, versus untreated control): 38,94%
- IC50 (C. tropicalis; addition de 2 % Pl.H. (plasma humain)): 50.1 µM
- IC50 (C. tropicalis; addition de 2 % SVF (sérum de veau foetal)): 8.31 µM
